Measured values reported in patent publication US20240108740A1, “THERAPEUTIC COMPOSITIONS INCLUDING SPN10 AND USES THEREOF” (Stealth BioTherapeutics Inc., priority 2022, published 2024).
Residues, ends and D or L forms follow the SMILES beside them.

Legend:
[1] = system: fatty (fa/fa) Zucker rats; test: Example 36: insulin resistance in fatty Zucker rats; assay type: in vivo, rat; conditions: approximately 6 weeks
Experimental: Peptide conjugates (1.0-5.0 mg/kg body wt); aromatic-cationic peptides (an equivalent molar dose of aromatic-cationic peptide based on the concentration of the aromatic-cationic peptide administered in the peptide conjugate treatment group); SPN10(s) (an equivalent molar dose of SPN10 based on the concentration of SPN10 administered in the peptide conjugate treatment group); or SPN10(s) in combination with aromatic-cationic peptides (e.g., an equivalent molar dose of SPN10 based on the concentration of SPN10 administered in the peptide conjugate treatment group and an equivalent molar dose of aromatic-cationic peptide based on the concentration of aromatic-cationic peptide administered in the peptide conjugate treatment group) will be administered to the rats intraperitoneally (i.p.) or orally (drinking water or oral gavage).
Physiological parameters measured will include body weight, fasting glucose/insulin/free fatty acid, oral glucose tolerance (OGTT), in vitro muscle insulin sensitivity (in vitro incubation), biomarkers of insulin signaling (Akt-P, IRS-P), mitochondrial function studies on permeabilized fibers (respiration, H2O2 production), biomarkers of intracellular oxidative stress (lipid peroxidation, GSH/GSSG ratio, aconitase activity), and mitochondrial enzyme activity. Control animals will include wild-type and untreated fatty rats. […]

Caco-2 cells = test: Example 12: 3NP-induced mitochondrial depolarization (TMRM, CLSM); assay type: cell-based, human; conditions: 3NP 10 mM, 4 hours
Experimental: Caco-2 cells will be treated with 3NP (10 mM) alone or in the presence of peptide conjugates (0.1 μM); aromatic-cationic peptides (an equivalent molar dose of aromatic-cationic peptide based on the concentration of the aromatic-cationic peptide administered in the peptide conjugate treatment group); SPN10(s) (an equivalent molar dose of SPN10 based on the concentration of SPN10 administered in the peptide conjugate treatment group); or SPN10(s) in combination with aromatic-cationic peptides (e.g., an equivalent molar dose of SPN10 based on the concentration of SPN10 administered in the peptide conjugate treatment group and an equivalent molar dose of aromatic-cationic peptide based on the concentration of aromatic-cationic peptide administered in the peptide conjugate treatment group) for 4 hours, and then incubated with TMRM and examined by CLSM. It is expected that 3NP-treated cells will display reduced fluorescence compared to control cells, which indicates mitochondrial depolarization.

normal, mobile mice = test: Skeletal muscle size and mitochondrial function in normal, mobile mice; assay type: in vivo, mouse
Excerpt: 1. Normal, mobile mice: Normal, mobile mice will be randomly divided into […], A-E, with 8 mice per group. Group A mice will receive an injection of saline vehicle; Group B mice will receive an i.p. injection of the peptide conjugate; Group C mice will receive an i.p. injection of aromatic-cationic peptide; Group D mice will receive an i.p. injection of SPN10; Group E mice will receive an i.p. injection of SPN10+aromatic-cationic peptide.
Preparation of permeabilized muscle fibers. Permeabilized muscle fibers will be prepared as previously described. Korshunov, et al., FEBS Lett 416:15-18, 1997; Tonkonogi, et al., Pfliigers Arch 446:261-269, 2003. Briefly, the muscle will be trimmed of connective tissue and cut down to fiber bundles (4-8 mg wet wt). […]
Mitochondrial respiration in permeabilized fibers. Respiration will be measured polarographically in a respiration chamber maintained at 37° C. […] Flux through complex I will be measured using 5 mM pyruvate and 2 mM malate. […] Basal respiration (state 4) will be determined in the presence of 10 µg/mL oligomycin to inhibit ATP synthesis. The respiratory control ratio (RCR) will be calculated by dividing state 3 by state 4 respiration.

N=C(N)NCCC[C@H](NC(=O)[C@@H](N)Cc1c[nH]c2ccccc12)C(=O)N[C@@H](Cc1c[nH]c2ccccc12)C(=O)N[C@@H](CCCCN)C(N)=O [SPN10, H-L-Trp-L-Arg-L-Trp-L-Lys-NH2] (H-WRWK-NH2)
whole body and muscle insulin resistance (treatment) ([1]; Zucker rats (~12 weeks of age)): reduce the whole body and muscle insulin resistance
development of whole body and muscle insulin resistance (prevention) ([1]; young Zucker rats (~3-4 weeks of age)): attenuate or prevent the development of whole body and muscle insulin resistance
mitochondrial depolarization caused by 3NP (Caco-2 cells): protect against mitochondrial depolarization
normal soleus muscle weight, RCR, mitochondrial state 3 and state 4 respiration (normal, mobile mice; mobile mice): no effect
normal skeletal muscle size or mitochondrial function (normal, mobile mice; mouse, in vivo): no effect
